Data as given in US11168073B2, “3,3-difluoroallylamines or salts thereof and pharmaceutical compositions comprising the same” (YUHAN CORPORATION, priority 2018, dated 2021).
Counter-ions that a name gives are not always drawn.

Legend:
Type in all cases: biochemical
recombinant human VAP-1 = target: T1, recombinant human VAP-1 (Homo sapiens, UniProt Q16853); test: Activity evaluation on recombinant human VAP-1 (Amplex Red/HRP-coupled hydrogen peroxide assay, benzylamine substrate); details: recombinant human VAP-1, benzylamine substrate; read-out: Inhibitory Activity (IC50, nM) human VAP-1
T1 construct: purchased R&D systems
T1 sequence (Q16853 1-763): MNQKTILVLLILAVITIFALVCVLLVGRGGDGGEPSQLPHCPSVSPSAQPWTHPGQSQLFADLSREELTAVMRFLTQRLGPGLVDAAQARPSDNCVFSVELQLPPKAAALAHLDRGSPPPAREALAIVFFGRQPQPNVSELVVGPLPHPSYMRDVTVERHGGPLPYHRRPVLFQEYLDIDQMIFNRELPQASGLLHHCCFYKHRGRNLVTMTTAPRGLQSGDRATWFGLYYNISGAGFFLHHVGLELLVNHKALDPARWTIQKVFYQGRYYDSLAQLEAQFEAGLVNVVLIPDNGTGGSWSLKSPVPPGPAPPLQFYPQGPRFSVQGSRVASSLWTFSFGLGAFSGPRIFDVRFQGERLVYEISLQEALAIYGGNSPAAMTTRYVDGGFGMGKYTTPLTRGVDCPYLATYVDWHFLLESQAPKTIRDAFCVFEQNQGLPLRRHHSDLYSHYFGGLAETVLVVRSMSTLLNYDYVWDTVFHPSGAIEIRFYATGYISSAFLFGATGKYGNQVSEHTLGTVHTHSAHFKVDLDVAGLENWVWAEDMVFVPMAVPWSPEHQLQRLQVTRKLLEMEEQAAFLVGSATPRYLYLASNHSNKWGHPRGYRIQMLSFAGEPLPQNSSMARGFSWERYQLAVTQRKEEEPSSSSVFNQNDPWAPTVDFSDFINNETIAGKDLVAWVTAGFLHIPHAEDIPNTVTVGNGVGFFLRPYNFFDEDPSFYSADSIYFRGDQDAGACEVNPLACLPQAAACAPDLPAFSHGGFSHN
Procedure, shortened: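 Hydrogen peroxide from benzylamine (1 mM) oxidation by human recombinant VAP-1 detected via HRP-coupled Amplex Red (200 uM) fluorescence, kinetic over 1–2 h. Enzyme and compound preincubated 30 min at 37 °C, pH 7.4 phosphate; 8-point dose response, signal-rate decrease versus DMSO control fitted to four-parameter logistic for IC50.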

[1] = target: T2, recombinant human MAO-A (monoamine oxidase-A) (Homo sapiens, UniProt P21397); test: Activity evaluation on recombinant human MAO-A (Amplex Red/HRP-coupled assay, 0.5 mM tyramine substrate); details: 0.5 mM tyramine substrate, read-out: Inhibitory Activity (IC50, nM) MAO-A
T2 construct: purchased Sigma-Aldrich
T2 sequence (P21397 1-527): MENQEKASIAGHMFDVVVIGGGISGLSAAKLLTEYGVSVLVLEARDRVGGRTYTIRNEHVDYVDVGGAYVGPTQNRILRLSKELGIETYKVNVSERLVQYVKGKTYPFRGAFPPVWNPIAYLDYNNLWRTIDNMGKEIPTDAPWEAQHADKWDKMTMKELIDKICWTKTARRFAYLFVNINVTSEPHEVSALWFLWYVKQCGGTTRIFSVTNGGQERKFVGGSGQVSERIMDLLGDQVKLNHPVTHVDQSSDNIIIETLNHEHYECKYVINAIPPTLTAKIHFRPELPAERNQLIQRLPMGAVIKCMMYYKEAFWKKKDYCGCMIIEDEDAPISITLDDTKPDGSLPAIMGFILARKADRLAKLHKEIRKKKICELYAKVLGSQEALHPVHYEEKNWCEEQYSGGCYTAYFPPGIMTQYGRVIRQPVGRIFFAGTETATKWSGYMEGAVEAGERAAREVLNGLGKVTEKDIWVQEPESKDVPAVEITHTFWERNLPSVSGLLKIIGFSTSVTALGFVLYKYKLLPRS
Procedure, shortened: (§1)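 Each oxidase is tested with its own substrate: MAO-A with 0.5 mM tyramine, MAO-B with 1 mM benzylamine, DAO with 1 mM putrescine. After 30 min enzyme-compound preincubation at 37 °C, Amplex Red (200 uM) plus HRP (1 U/mL) reports H2O2 as fluorescence; IC50 is fitted from eight-point curves.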

[2] = target: T3, recombinant human MAO-B (monoamine oxidase-B) (Homo sapiens, UniProt P27338); test: Activity evaluation on recombinant human MAO-B (Amplex Red/HRP-coupled assay, 1 mM benzylamine substrate); details: 1 mM benzylamine substrate, read-out: Inhibitory Activity (IC50, nM) MAO-B
T3 construct: purchased Sigma-Aldrich
T3 sequence (P27338 1-520): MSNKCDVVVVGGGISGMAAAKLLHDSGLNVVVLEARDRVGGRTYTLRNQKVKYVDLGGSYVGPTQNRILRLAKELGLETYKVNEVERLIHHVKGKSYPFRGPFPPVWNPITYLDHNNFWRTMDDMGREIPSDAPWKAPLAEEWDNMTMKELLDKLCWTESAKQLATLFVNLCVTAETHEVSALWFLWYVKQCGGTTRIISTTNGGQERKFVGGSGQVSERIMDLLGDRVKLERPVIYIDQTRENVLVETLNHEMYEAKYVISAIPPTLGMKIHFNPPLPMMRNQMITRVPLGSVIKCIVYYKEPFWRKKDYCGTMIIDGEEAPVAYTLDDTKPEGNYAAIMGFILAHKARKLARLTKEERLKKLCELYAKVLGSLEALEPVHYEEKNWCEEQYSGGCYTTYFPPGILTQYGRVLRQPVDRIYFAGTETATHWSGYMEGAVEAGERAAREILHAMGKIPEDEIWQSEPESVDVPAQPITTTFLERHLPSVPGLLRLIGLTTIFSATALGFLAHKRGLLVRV
Procedure, shortened: as §1

[3] = target: T4, recombinant human DAO (diamine oxidase) (Homo sapiens, UniProt P19801); test: Activity evaluation on recombinant human DAO (Amplex Red/HRP-coupled assay, 1 mM putrescine substrate); details: 1 mM putrescine substrate, read-out: Inhibitory Activity (IC50, nM) DAO
T4 construct: purchased R&D systems
T4 sequence (P19801 20-751): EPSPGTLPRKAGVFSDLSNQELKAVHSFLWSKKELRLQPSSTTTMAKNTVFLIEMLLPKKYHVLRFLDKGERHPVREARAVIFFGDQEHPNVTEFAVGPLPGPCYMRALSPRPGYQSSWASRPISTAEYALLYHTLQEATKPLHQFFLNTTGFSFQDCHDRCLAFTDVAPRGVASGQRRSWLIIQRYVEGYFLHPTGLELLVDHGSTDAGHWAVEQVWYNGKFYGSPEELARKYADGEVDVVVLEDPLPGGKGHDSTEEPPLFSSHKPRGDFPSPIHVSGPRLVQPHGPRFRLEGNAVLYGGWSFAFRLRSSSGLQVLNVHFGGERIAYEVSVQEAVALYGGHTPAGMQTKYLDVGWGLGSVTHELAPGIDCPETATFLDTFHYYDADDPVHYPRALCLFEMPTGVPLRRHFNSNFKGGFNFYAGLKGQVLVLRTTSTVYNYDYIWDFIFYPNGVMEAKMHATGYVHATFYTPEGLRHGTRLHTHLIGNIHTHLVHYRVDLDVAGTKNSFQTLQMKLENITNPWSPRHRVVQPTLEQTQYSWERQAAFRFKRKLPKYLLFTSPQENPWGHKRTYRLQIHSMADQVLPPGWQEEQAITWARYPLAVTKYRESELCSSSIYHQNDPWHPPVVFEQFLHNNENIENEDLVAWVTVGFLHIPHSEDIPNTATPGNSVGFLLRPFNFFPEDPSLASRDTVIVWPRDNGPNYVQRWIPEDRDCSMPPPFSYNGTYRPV
Procedure, shortened: as §1

IC50 (recombinant human VAP-1) [nM]	IC50 [1] [nM]	IC50 [2] [nM]	IC50 [3] [nM]	SMILES
307	> 100000	> 100000	4860	CN(C)c1ccc(-c2ccccc2Cn2cnn(CC(CN)=C(F)F)c2=O)cn1 [Example 281, 2-[2-(aminomethyl)-3,3-difluoro-allyl]-4-[[2-[6-(dimethylamino)-3-pyridyl]phenyl]methyl]-1,2,4-triazol-3-one Trifluoroacetate]
28	> 100000	> 100000	> 100000	NCC(Cn1ncn(Cc2ccccc2-c2ccc3c(c2)OCO3)c1=O)=C(F)F [Example 282, 2-[2-(aminomethyl)-3,3-difluoro-allyl]-4-[[2-(1,3-benzodioxol-5-yl)phenyl]methyl]-1,2,4-triazol-3-one Trifluoroacetate]
154	> 100000	> 100000	> 100000	Cc1cc(-c2ccccc2Cn2cnn(CC(CN)=C(F)F)c2=O)cc2c1NC(=O)CC2 [Example 283, 6-[2-[[1-[2-(aminomethyl)-3,3-difluoro-allyl]-5-oxo-1,2,4-triazol-4-yl]methyl]phenyl]-8-methyl-3,4-dihydro-1H-quinolin-2-one Trifluoroacetate]
148	> 100000	> 100000	66400	CN1C(=O)CCc2cc(-c3ccccc3Cn3cnn(CC(CN)=C(F)F)c3=O)ccc21 [Example 284, 6-[2-[[1-[2-(aminomethyl)-3,3-difluoro-allyl]-5-oxo-1,2,4-triazol-4-yl]methyl]phenyl]-1-methyl-3,4-dihydroquinolin-2-one trifluoroacetate]
> 100	> 100000	> 100000	> 100000	CCn1cc(-c2ccccc2Cn2cnn(CC(CN)=C(F)F)c2=O)ccc1=O [Example 285, 5-[2-[[1-[2-(aminomethyl)-3,3-difluoro-allyl]-5-oxo-1,2,4-triazol-4-yl]methyl]phenyl]-1-ethyl-pyridin-2-one Trifluoroacetate]
1.4	2620	3230	2480	CCn1cc(-c2ccc(-c3ccc(Cn4cnn(CC(CN)=C(F)F)c4=O)s3)cc2)cn1 [Example 286, 2-[2-(aminomethyl)-3,3-difluoro-allyl]-4-[[5-[4-(1-ethylpyrazol-4-yl)phenyl]-2-thienyl]methyl]-1,2,4-triazol-3-one Trifluoroacetate]
0.7	> 100000	12100	13900	CCn1cc(-c2cccc(-c3ccc(Cn4cnn(CC(CN)=C(F)F)c4=O)s3)c2)cn1 [Example 287, 2-[2-(aminomethyl)-3,3-difluoro-allyl]-4-[[5-[3-(1-ethylpyrazol-4-yl)phenyl]-2-thienyl]methyl]-1,2,4-triazol-3-one Trifluoroacetate]
2.6	2910	3230	3780	CCn1cc(-c2ccc(-c3csc(Cn4cnn(CC(CN)=C(F)F)c4=O)c3)cc2)cn1 [Example 288, 2-[2-(aminomethyl)-3,3-difluoro-allyl]-4-[[4-[4-(1-ethylpyrazol-4-yl)phenyl]-2-thienyl]methyl]-1,2,4-triazol-3-one Trifluoroacetate]
0.6	> 100000	12000	14500	CCn1cc(-c2cccc(-c3csc(Cn4cnn(CC(CN)=C(F)F)c4=O)c3)c2)cn1 [Example 289, 2-[2-(aminomethyl)-3,3-difluoro-allyl]-4-[[4-[3-(1-ethylpyrazol-4-yl)phenyl]-2-thienyl]methyl]-1,2,4-triazol-3-one Trifluoroacetate]
0.7	> 100000	1190	2380	CCn1cc(-c2ccc(-c3cnc(-n4cnn(CC(CN)=C(F)F)c4=O)c(C)c3)cc2)cn1 [Example 290, 2-[2-(aminomethyl)-3,3-difluoro-allyl]-4-[5-[4-(1-ethylpyrazol-4-yl)phenyl]-3-methyl-2-pyridyl]-1,2,4-triazol-3-one Trifluoroacetate]
0.6	> 100000	3450	6160	CCn1cc(-c2cccc(-c3cnc(-n4cnn(CC(CN)=C(F)F)c4=O)c(C)c3)c2)cn1 [Example 291, 2-[2-(aminomethyl)-3,3-difluoro-allyl]-4-[5-[3-(1-ethylpyrazol-4-yl)phenyl]-3-methyl-2-pyridyl]-1,2,4-triazol-3-one Trifluoroacetate]
2.7	86200	> 100000	> 100000	NCC(Cn1ncn(Cc2ccc(-c3cn[nH]c3)s2)c1=O)=C(F)F [Example 292, 2-[2-(aminomethyl)-3,3-difluoro-allyl]-4-[[5-(1H-pyrazol-4-yl)-2-thienyl]methyl]-1,2,4-triazol-3-one Trifluoroacetate]
2.4	> 100000	> 100000	25300	CS(=O)(=O)n1cc(-c2ccc(Cn3cnn(CC(CN)=C(F)F)c3=O)s2)cn1 [Example 293, 2-[2-(aminomethyl)-3,3-difluoro-allyl]-4-[[5-(1-methylsulfonylpyrazol-4-yl)-2-thienyl]methyl]-1,2,4-triazol-3-one Trifluoroacetate]
